# Laboratory results from patent US20260207626A1, “SYNTHETIC TRITERPENOIDS AND COMPOSITIONS THEREOF IN WEIGHT MANAGEMENT, SKELETAL MUSCLE FUNCTION, AND APPETITE SUPPRESSION” (The Board of Regents of the University of Texas System, priority 2022, published 2026).
# “Also recorded” adds a separate entry of the source.
# Legend:
# NFκB = assay: Western blot of palmitate (PA)-induced NFκB phosphorylation in L6-GLUT4myc myotubes; type: cell-based, rat; conditions: CDDO-EA 500 nM 1 h then PA 400 μM 6 h
# Protocol: L6-GLUT4myc myotubes were pretreated with CDDO-EA (500 nM, 1 h) and then treated with PA (400 μM, 6 h). NFκB phosphorylation and protein were measured by Western blotting. Data are represented as ±SEM. * P<0.05 vs. control; ^#P<0.05 vs. […]. (One-Way ANOVA).
# GLUT4 = assay: GLUT4myc translocation by immunofluorescence in L6-GLUT4myc myotubes; type: cell-based, rat
# Protocol: Immunofluorescence and confocal microscopy were employed to visualize the localization of c-myc epitope-tagged GLUT4 in L6-GLUT4myc myotubes treated with CDDO-EA for 1 h. L6-GLUT4myc myotubes were also treated with insulin alone for 15 min as a positive control.
# To examine the properties of CDDO-EA in regulating glucose metabolism in the skeletal muscle, the present study examined whether CDDO-EA induces translocation of GLUT4 to the cell surface (FIG. 16A). Immunofluorescence and confocal microscopy were used to visualize the localization of c-myc epitope-tagged GLUT4 in L6-GLUT4myc cells.
# Immunofluorescence microscopy: L6-GLUT4myc myoblasts (4×10^4 cells/ml, 0.2 ml/well) were plated onto Nunc Lab-TekII 8-chamber slides (Thermo Fisher Scientific) and differentiated for 7 days. Myotubes were pre-treated with CDDO-EA 500 nM for 1 h followed by LPS 100 ng/ml (E. coli O111: B4, Sigma Aldrich) treatment for 1 h. After treatment, myotubes were fixed, permeabilized, and stained with anti-NF-κB p65 primary antibody (cat #sc-372, 1:100, Santa Cruz Biotechnology) and a goat anti-rabbit secondary antibody conjugated with Alexa Fluor® 488 (cat #A32731, 1:500, Invitrogen) as previously described. For GLUT4myc cell membrane staining, myotubes were pre-treated with CDDO-EA 500 nM for 1 h followed by LPS 100 ng/ml (E. coli 0111: B4, Sigma Aldrich) treatment for 1 h. Insulin 100 nM (cat #19278, Sigma Aldrich) treatment was for 15 min. After CDDO-EA, LPS, and insulin treatment, myotubes were fixed without permeabilization and stained with anti-c-myc primary antibody (cat #C3956, 1:100, Sigma Aldrich) and a goat anti-rabbit secondary antibody conjugated with Alexa Fluor® 488 (cat #A32731, 1:500, Invitrogen) as previously described.
# MCP-1 = assay: Quantitative RT-PCR of LPS-induced MCP-1 mRNA in L6-GLUT4myc myotubes; type: cell-based, rat; conditions: 500 nM CDDO-EA 1 hr then 100 ng/ml LPS 1 hr
# Protocol: Quantitative RT-PCR: L6-GLUT4myc myoblasts (4×10^4 cell/ml, 2 ml/well) were seeded on a 6-well plate and differentiated into myo-tubes with differentiation medium for 7 days. Myotubes were pre-treated with CDDO-EA 500 nM for 1 h followed by LPS 100 ng/ml (E. coli O111: B4, Sigma Aldrich) treatment for 1 h. RNA was isolated from treated myotubes using TRIzol reagent (Ambion) according to the manufacturer's instructions. Validated RT-PCR primers specific for rat TNF-α (Assay ID: Rn99999017_m1) and rat MCP-1 (Assay ID: Rn00580555_m1), or rat GAPDH (Assay ID: Rn99999916_s1) were used to quantify mRNA levels using TaqMan RNA-to-CT 1-Step Kit (Thermo Fisher Scientific), Real-time PCR was carried out using an AB7900HT Fast Real-Time PCR System (Applied Biosystems), and MCP-1 and TNF-α levels were calculated using the ΔΔCT method according to the manufacturer's instructions.
# TNF-α = assay: LPS-induced TNF-α ELISA in RAW 264.7 macrophages; type: cell-based, mouse; conditions: RAW264.7, 500 nM CDDO-EA 1 hour then 100 ng/ml LPS 6 hours
# Protocol: Cytokine detection: RAW 264.7 cells were grown on 24-well dishes at 1×10^6 cells/ml, 0.5 ml/well. Cells were pre-treated with CDDO-EA 500 nM for 1 h. After 1 h, cells were treated with 100 ng/ml of LPS16,18 (E. coli O111: B4, Sigma Aldrich) for 6 h, and supernatants were collected and stored at −80° C. until analysis. TNF-α from the culture media of cells was measured and quantified using a Mouse TNF (Mono/Mono) ELISA Set (BD Bioscience) according to the manufacturer's instructions.
# NF-κB p65 (Ser536) = assay: Western blot of LPS-induced NF-κB phosphorylation in L6-GLUT4myc myotubes; type: cell-based, rat; conditions: 500 nM CDDO-EA 1 hr then 100 ng/ml LPS 1 hr
# Text: To examine the anti-inflammatory properties of CDDO-EA in skeletal muscle cells, CDDO-EA was examined for its effect on nuclear factor-kappa B (NF-κB) activity in L6-GLUT4myc muscle cells, in the context of LPS-mediated inflammatory responses in L6-GLUT4myc muscle cells. All experiments were independently repeated one to four times and done in duplicate or triplicate, and data were statistically analyzed by One-Way ANOVA or unpaired t-test, two tailed.
# Cells were studied with vehicle alone [0.125% dimethyl sulfoxide (DMSO)] and LPS with and without CDDO-EA. […]
# Western blotting and subcellular fractionation: L6-GLUT4myc myoblasts (4×10^4 cells/ml, 2 ml/well) were seeded onto 6-well dishes and differentiated with differentiation medium for 7 days. […] Protein concentrations were determined using the Pierce BCA Protein Assay (Thermo Fisher Scientific), and equal amounts of protein were separated by electrophoresis and subsequently transferred to nitrocellulose membranes. Membranes were analyzed using the following antibodies from Cell Signaling Technology: phosphorylated NF-κB (Ser536) (93 H1, cat #3033,1:1000), phosphorylated IKB-α (Ser32) (14D4, cat #2859,1:1000), IKB-α (44D4, cat #4812, 1:1000), phosphorylated p38 (Thr180/Tyr182) (cat #9211, 1:1000), p38 (cat #9212, 1:1000). […] Bands were quantitated using ImageQuant (GE Healthcare). […]
structure (smiles),measurement,setting,value
"CCNC(=O)[C@]12CCC(C)(C)C[C@H]1C1C(=O)C=C3[C@@]4(C)C=C(C#N)C(=O)C(C)(C)[C@@H]4CC[C@@]3(C)[C@]1(C)CC2 (stereo partly drawn) [CDDO-EA, (4aS,6aR,6bS,8aR,12aS,14bS)-11-cyano-N-ethyl-2,2,6a,6b,9,9,12a-heptamethyl-10,14-dioxo-1,3,4,5,6,6a,6b, 7,8,8a,9,10,12a, 14,14a, 14b-hexadecahydropicene-4a (2H)-carboxamide]",PA-induced NFκB phosphorylation,NFκB,inhibits PA-induced NF-κB activation; also recorded: inhibits PA-induced NFκB phosphorylation
same,CDDO-EA-stimulated GLUT4myc translocation in presence of LPS,GLUT4; 500 nM CDDO-EA 1 h then 100 ng/ml LPS 1 h,did not inhibit CDDO-EA-stimulated GLUT4myc translocation; also recorded: did not prevent CDDO-EA-stimulated GLUT4myc translocation to the cell surface
same,GLUT4myc translocation to the cell surface,"GLUT4; CDDO-EA 500 nM 1 h, insulin 100 nM 15 min",induced GLUT4myc translocation to the cell surface; also recorded: activates GLUT4 translocation to cell membrane and p38 phosphorylation
same,LPS-induced MCP-1 mRNA expression,MCP-1,lowered LPS-induced mRNA levels of TNF-α and MCP-1; also recorded: blocked the mRNA expression of LPS-induced TNF-α and MCP-1; also recorded: reduced LPS-induced TNF-α and MCP-1 gene expression levels; also recorded: inhibits LPS-inducted TNF-α and MCP-1 gene expression
same,LPS-induced TNF-α production,TNF-α,substantially blocked; also recorded: inhibits LPS-induced cytokines secretion in macrophages
same,LPS-induced NF-κB phosphorylation,NF-κB p65 (Ser536),decreased LPS-induced NF-κB and nuclear factor of kappa light polypeptide gene enhancer in B-cells inhibitor-alpha (IκB) phosphorylation; also recorded: inhibited LPS-induced NF-κB phosphorylation; also recorded: inhibits lipopolysaccharide (LPS)-induced NF-κB and Inhibitory kappa B alpha (IκB-α) phosphorylation
